Measurements taken from ChEMBL document CHEMBL1128130, “Hydroxamate inhibitors of human gelatinase B (92 kDa)” (Bioorg Med Chem Lett, 1995).

Key:
[1] = target: Matrix metalloproteinase-9 (Homo sapiens, UniProt P14780)
Description: Inhibition of human Matrix metalloprotease-9

Interstitial collagenase = target: T1, Interstitial collagenase (Homo sapiens, UniProt P03956)
T1 sequence (P03956 whole entry): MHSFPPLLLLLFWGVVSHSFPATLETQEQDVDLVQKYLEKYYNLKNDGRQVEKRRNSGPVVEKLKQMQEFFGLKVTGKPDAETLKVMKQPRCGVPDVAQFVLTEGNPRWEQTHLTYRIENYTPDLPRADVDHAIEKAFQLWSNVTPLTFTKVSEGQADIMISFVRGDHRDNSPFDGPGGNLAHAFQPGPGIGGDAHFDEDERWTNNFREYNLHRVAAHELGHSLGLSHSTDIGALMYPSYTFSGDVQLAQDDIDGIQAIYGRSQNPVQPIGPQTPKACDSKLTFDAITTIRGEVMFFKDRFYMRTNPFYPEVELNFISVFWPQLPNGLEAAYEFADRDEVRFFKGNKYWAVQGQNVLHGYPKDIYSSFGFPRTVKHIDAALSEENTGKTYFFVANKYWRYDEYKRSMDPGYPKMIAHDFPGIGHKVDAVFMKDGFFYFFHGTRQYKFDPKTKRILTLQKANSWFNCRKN
Description: Inhibition of human fibroblast collagenase, matrix metalloprotease-1

Stromelysin-1 = Stromelysin-1 (Homo sapiens, UniProt P08254)
Description: Inhibition of human fibroblast stromelysin, matrix metalloprotease-3

Neutrophil collagenase = Neutrophil collagenase (Homo sapiens, UniProt P22894)
Sequence of Neutrophil collagenase (P22894 whole entry): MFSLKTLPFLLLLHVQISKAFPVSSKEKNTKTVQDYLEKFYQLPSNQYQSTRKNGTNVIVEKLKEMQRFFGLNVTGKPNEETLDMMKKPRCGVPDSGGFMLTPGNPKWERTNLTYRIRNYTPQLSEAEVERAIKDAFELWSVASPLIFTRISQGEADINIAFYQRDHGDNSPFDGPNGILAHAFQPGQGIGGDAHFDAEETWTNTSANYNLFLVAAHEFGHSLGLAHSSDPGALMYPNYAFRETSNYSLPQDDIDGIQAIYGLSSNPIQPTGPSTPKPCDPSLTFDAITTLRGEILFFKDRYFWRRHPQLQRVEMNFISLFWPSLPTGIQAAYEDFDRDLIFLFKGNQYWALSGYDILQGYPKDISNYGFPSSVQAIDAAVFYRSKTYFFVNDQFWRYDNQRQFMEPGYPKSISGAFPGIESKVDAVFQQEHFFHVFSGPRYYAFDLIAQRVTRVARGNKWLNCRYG
Description: Inhibition of human Matrix metalloprotease-8

Sequence of Stromelysin-1 (P08254 whole entry): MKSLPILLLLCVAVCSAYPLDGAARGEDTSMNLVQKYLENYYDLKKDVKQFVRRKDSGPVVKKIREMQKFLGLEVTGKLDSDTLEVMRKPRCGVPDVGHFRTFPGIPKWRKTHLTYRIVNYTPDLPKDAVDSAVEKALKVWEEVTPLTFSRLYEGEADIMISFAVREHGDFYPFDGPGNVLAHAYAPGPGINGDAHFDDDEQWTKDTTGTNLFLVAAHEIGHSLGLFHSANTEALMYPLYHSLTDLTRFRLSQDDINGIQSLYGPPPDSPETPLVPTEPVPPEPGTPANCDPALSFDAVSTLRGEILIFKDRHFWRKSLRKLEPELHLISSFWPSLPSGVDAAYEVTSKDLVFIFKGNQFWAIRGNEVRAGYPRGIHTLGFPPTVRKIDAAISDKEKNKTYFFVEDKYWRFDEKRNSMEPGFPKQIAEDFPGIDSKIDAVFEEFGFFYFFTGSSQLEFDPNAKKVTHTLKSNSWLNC
Sequence of Matrix metalloproteinase-9 (P14780 whole entry): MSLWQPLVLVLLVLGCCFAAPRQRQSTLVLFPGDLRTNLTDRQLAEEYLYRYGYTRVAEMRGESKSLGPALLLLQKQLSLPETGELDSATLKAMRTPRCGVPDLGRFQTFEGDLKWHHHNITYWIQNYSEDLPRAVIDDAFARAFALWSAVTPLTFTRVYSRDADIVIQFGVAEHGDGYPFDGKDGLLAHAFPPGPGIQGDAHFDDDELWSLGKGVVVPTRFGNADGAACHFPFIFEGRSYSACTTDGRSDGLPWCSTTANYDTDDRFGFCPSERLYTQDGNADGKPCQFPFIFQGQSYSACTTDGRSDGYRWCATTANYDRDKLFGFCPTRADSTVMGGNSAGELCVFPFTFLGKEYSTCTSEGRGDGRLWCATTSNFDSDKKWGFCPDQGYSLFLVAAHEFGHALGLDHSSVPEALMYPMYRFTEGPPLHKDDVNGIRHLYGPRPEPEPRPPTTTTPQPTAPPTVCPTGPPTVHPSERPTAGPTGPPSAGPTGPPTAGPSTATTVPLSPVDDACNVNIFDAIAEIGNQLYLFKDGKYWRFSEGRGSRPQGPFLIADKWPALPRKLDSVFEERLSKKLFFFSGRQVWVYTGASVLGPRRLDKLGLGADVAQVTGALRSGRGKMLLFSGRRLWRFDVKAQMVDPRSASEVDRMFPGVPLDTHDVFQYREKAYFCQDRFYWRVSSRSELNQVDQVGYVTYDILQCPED

| Structure (SMILES) | Ki [1] [nM] | Ki (Interstitial collagenase) [nM] | Ki (Stromelysin-1) [nM] | Ki (Neutrophil collagenase) [nM] |
| --- | --- | --- | --- | --- |
| CNC(=O)[C@H](Cc1ccccc1)NC(=O)[C@@H](CC(=O)NO)CC(C)C | 1.4 |  |  |  |
| CNC(=O)[C@H](Cc1ccccc1)NC(=O)[C@H](CCCCCCc1ccccc1)CC(=O)NO | 1.3 | 8400 | 11 | < 2 |
| CNC(=O)CNC(=O)[C@H](CCCCOCc1ccccc1)CC(=O)NO | 5600 | > 100 | 3500 | 170 |
| CCCCC[C@H](CC(=O)NO)C(=O)N[C@H](C(=O)N1CCCC1CO)C(C)C (some centres undefined) | 330 | 300 | 1700 | 190 |
| CC[C@H](CC(=O)NO)C(=O)N[C@@H](Cc1c[nH]c2ccccc12)C(=O)NC | 20 | 180 | 2700 | 100 |
| CNC(=O)[C@@H](NC(=O)[C@H](CCCCOCc1ccccc1)CC(=O)NO)C(C)(C)C | 11 |  | 39 | 4.7 |
| CNC(=O)[C@H](Cc1c[nH]c2ccccc12)NC(=O)[C@H](C)CC(=O)NO | 500 | 8500 | 40000 | 4200 |
| CNC(=O)[C@H](Cc1ccccc1)NC(=O)[C@H](CCCCOc1ccccc1)CC(=O)NO | 1.2 |  |  |  |
| CCCCCc1ccc(OCCCC[C@H](CC(=O)NO)C(=O)N[C@H](C(=O)NC)C(C)(C)C)cc1 | 3.8 |  |  |  |
| CNC(=O)[C@H](Cc1ccccc1)NC(=O)[C@H](CCCCCOc1ccccc1)CC(=O)NO | 0.31 |  |  |  |
| CNC(=O)[C@H](Cc1ccccc1)NC(=O)[C@H](CCCCOCc1ccccc1)CC(=O)NO | 3.3 |  |  |  |
| CNC(=O)[C@H](Cc1c[nH]c2ccccc12)NC(=O)[C@@H](CC(=O)NO)CC(C)C [ILOMASTAT] |  |  | 46 |  |
